Data published in patent publication US9334267B2, “RAF inhibitor compounds” (Deciphera Pharmaceuticals, LLC, priority 2012, dated 2016).

What was measured:
Sk-Mel-2 cells = test: SK-Mel-2 cell proliferation assay (resazurin); type: cell-based; conditions: Homo sapiens, N-Ras mutation B-Raf wild type, read-out: Cell Proliferation Inhibition IC50, nM SK-Mel-2
A375res cells [1] = test: Proliferation assay in vemurafenib-resistant melanoma cells A375res; conditions: Homo sapiens, 72 h, read-out: absolute IC50 values
Colo205 cells = test: Colo-205 cell proliferation assay (resazurin); type: cell-based; conditions: Homo sapiens; Colo-205 cells, V600E mutation; read-out: Cell Proliferation Inhibition IC50, nM Colo-205
A375 cells = test: A375 cell proliferation assay (CellTiter-Blue/resazurin); type: cell-based; conditions: Homo sapiens, A-375, V600E mutation, read-out: Cell Proliferation Inhibition IC50, nM A375
[2] = test system: phospho-ERK in HCT-116 cells; test: HCT-116 cell pERK assay (AlphaScreen SureFire); type: cell-based; conditions: Homo sapiens, B-Raf wild type, K-Ras mutation, 4 hours, range over the listed examples, read-out: phospho-ERK signal IC50
Method: Examples of Formula I are tested against HCT-116 cells harboring wild type B-Raf and K-Ras mutation. The phospho-ERK activities are evaluated as described below.
HCT-116 cells (catalog #CCL-247) are obtained from the American Type Culture Collection (ATCC, Manassas, Va.). Briefly, cells are grown in McCoy's 5A supplemented with 10% characterized fetal bovine serum (Invitrogen, Carlsbad, Calif.), and 1% Penicillin/Streptomycin/L-Glutamine at 37 degrees Celsius, 5% CO2, and 95% humidity. Cells are allowed to expand until reaching 75-90% confluency at which point they are subcultured or harvested for assay use. HCT-116 cells suspended in complete media are added to 384-well tissue culture treated plates (3×10^5 cells/mL; 7,500 cells per well). The cells are incubated overnight at 37 degrees Celsius, 5% CO2, and 95% humidity. Next, test compound or DMSO diluted in complete media is added to the wells (0.25% final DMSO concentration). The plates are then incubated for 4 hours at 37 degrees Celsius, 5% CO2, and 95% humidity. Following compound incubation, the cells are lysed at 4° C. for 20 minutes with shaking. Cell lysates are centrifuged and the supernatant is transferred to a new plate. An aliquot of each lysate is transferred to a white 384-well assay plate. Using the AlphaScreen SureFire pERK kit (Perkin-Elmer, Waltham, Mass.), an acceptor bead mixture is added to each well and incubated for 2 h at room temperature in the dark. A donor bead mixture is then added to each well and incubated for 2 h at room temperature in the dark. Plates are read using a Synergy2 plate reader (Biotek, Winooski, Vt.) in Plate Mode with Timing Control. Read: (F)1: excitation: 680/30 nm, emission: Plug. 2: Excitation: Plug, emission: 570/100 nm. Top mirror 635 nm. Data is analyzed using Prism software (Graphpad, San Diego, Calif.) to calculate IC50 values and Excel software (Microsoft, Redmond, Wash.) to calculate stimulation compared to control.

HCT-116 cells = test: HCT-116 cell proliferation assay (resazurin); type: cell-based; conditions: Homo sapiens, K-Ras mutation B-Raf wild type, read-out: Cell Proliferation Inhibition IC50, nM HCT-116
[3] = test system: phospho-ERK in A375 (BRAF V600E) xenograft; test: A375 mouse xenograft pharmacodynamic assay (tumor phospho-ERK by ELISA); type: in vivo; conditions: A375 xenografts in nude female mice, 20 mg/kg oral (gavage), vs vehicle
Method: To evaluate the in vivo pharmacodynamic (PD) effects of compounds of Formula I, an A375 (BRAF V600E) xenograft model is employed. Briefly, 10×10^6 A375 tumor cells (ATCC) are prepared in a 1:1 matrigel mix (0.2 mL total volume) and implanted by subcutaneous injection in hind leg of nude female mice. A total of 4 mice each for each dosing group are employed. Treatment is initiated with oral administration (gavage) of test compound or vehicle (20% captisol, 25 mM phosphate, pH2.0) in 0.2 mL volume when average tumor size reaches approximately 300 mg. After a fixed time interval, the tumors are harvested and the phospho-ERK levels are measured by ELISA (Enzyme-linked immunosorbent assay). Treated groups are compared to the vehicle control group to calculate % inhibition.

A375res cells [4] = test system: A375res cells

IC50 (Sk-Mel-2 cells) [nM]	IC50 (A375res cells [1]) [µM]	IC50 (Colo205 cells) [nM]	IC50 (A375 cells) [nM]	IC50 [2] [µM]	IC50 (HCT-116 cells) [nM]	IC50 shift A375 to A375res (A375res cells [4])	Compound	Measured pERK inhibition 2 h post dose [3] [% inhibition]
100 to 1000	0.015 to 1.1	< 100	< 100	0.002 to 0.472	100 to 1000	0.6-1.9 fold	CNc1ncc2cc(-c3cc(NC(=O)NCCC4(C)CC4)c(F)cc3C)c(C)nc2n1 [Example 24, 1-(2-Fluoro-4-methyl-5-(7-methyl-2-(methylamino)pyrido[2,3-d]pyrimidin-6-yl)phenyl)-3-(2-(1-methylcyclopropyl)ethyl)urea]	88
100 to 1000	0.015 to 1.1	< 100	< 100	0.002 to 0.472	100 to 1000	0.6-1.9 fold	Cc1cc(F)c(NC(=O)NCCC(C)(C)F)cc1-c1cc2cnc(NC3COC3)nc2nc1C [Example 25, 1-(3-Fluoro-3-methylbutyl)-3-(2-fluoro-4-methyl-5-(7-methyl-2-(oxetan-3-ylamino)pyrido[2,3-d]pyrimidin-6-yl)phenyl)urea]	–
< 100	0.015 to 1.1	< 100	< 100	0.002 to 0.472	100 to 1000	0.6-1.9 fold	CNc1ncc2cc(-c3cc(NC(=O)NCCC(C)(C)C)c(F)cc3C)cnc2n1 [Example 35, 1-(3,3-Dimethylbutyl)-3-[2-fluoro-4-methyl-5-(2-methylaminopyrido[2,3-d]pyrimidin-6-yl)phenyl]urea]	79
